Measured values published in PubChem BioAssay AID1963872 (Molecular Pharmacology Branch, DTP, NCI, 2024).

Tested on: KRAS patient-derived spheroids with HUVEC/MSC, viability
Assay: Anticancer human tumor 519858-162-T-J1-PDC patient-derived colon adenocarcinoma cell line growth inhibition [KRAS2]
Conditions: for IC50: curve of first compound; for viability, T/C: stronger effect = lower value
Summary of the method: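 KRAS-mutant tumor cells were grown as spheroids with HUVEC endothelial cells and human MSCs as stroma. Targeted agents were tested alone and with KRAS pathway inhibitors. Doses started at or near clinical Cmax, or 10 microM, descending half-log.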

[1] = second compound 0.1 µM, first compound 0.01 µM
[2] = second compound 0.1 µM, first compound 0.0316 µM
[3] = second compound 0.1 µM, first compound 0.1 µM
[4] = second compound 0.1 µM, first compound 0.316 µM
[5] = second compound 0.1 µM, first compound 1 µM
[6] = second compound 0.1 µM, first compound 3.16 µM
[7] = second compound 0.316 µM, first compound 0.01 µM
[8] = second compound 0.316 µM, first compound 0.0316 µM
[9] = second compound 0.316 µM, first compound 0.1 µM
[10] = second compound 0.316 µM, first compound 0.316 µM
[11] = second compound 0.316 µM, first compound 1 µM
[12] = second compound 0.316 µM, first compound 3.16 µM
[13] = second compound 1 µM, first compound 0.01 µM
[14] = second compound 1 µM, first compound 0.0316 µM
[15] = second compound 1 µM, first compound 0.1 µM
[16] = second compound 1 µM, first compound 0.316 µM
[17] = second compound 1 µM, first compound 1 µM
[18] = second compound 1 µM, first compound 3.16 µM
[19] = second compound 3.16 µM, first compound 0.01 µM
[20] = second compound 3.16 µM, first compound 0.0316 µM
[21] = second compound 3.16 µM, first compound 0.1 µM
[22] = second compound 3.16 µM, first compound 0.316 µM
[23] = second compound 3.16 µM, first compound 1 µM
[24] = second compound 3.16 µM, first compound 3.16 µM
[25] = second compound 10 µM, first compound 0.0316 µM
[26] = second compound 10 µM, first compound 0.1 µM
[27] = second compound 10 µM, first compound 0.316 µM
[28] = second compound 10 µM, first compound 1 µM
[29] = second compound 10 µM, first compound 3.16 µM
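Also: compound exposure lasted seven days before readout.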
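For viability, T/C in this document: 100% = DMSO vehicle control viability.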

CC(=O)OC12COC1CC(O)C1(C)C(=O)C(O)C3=C(C)C(OC(=O)C(O)C(NC(=O)OC(C)(C)C)c4ccccc4)CC(O)(C(OC(=O)c4ccccc4)C21)C3(C)C (stereo not given) + CC1OCC2(CCN(c3cnc(Sc4ccnc(N)c4Cl)c(N)n3)CC2)C1N
IC50 (second compound 0.1 µM): > 3160 nM | IC50 (second compound 0.316 µM): > 3160 nM | IC50 (second compound 1 µM): > 3160 nM | IC50 (second compound 3.16 µM): 261 nM | IC50 (second compound 10 µM): 205 nM | viability, T/C [1]: 73.8% | viability, T/C [2]: 71.1% | viability, T/C [3]: 89.4% | viability, T/C [4]: 109% | viability, T/C [5]: 79.5% | viability, T/C [6]: 80.7% | viability, T/C [7]: 79.9% | viability, T/C [8]: 84.8% | viability, T/C [9]: 90.3% | viability, T/C [10]: 55.5% | viability, T/C [11]: 63.4% | viability, T/C [12]: 51.5% | viability, T/C [13]: 88.9% | viability, T/C [14]: 71.2% | viability, T/C [15]: 104% | viability, T/C [16]: 81.8% | viability, T/C [17]: 83.3% | viability, T/C [18]: 101% | viability, T/C [19]: 59.6% | viability, T/C [20]: 77.2% | viability, T/C [21]: 64.7% | viability, T/C [22]: 46.9% | viability, T/C [23]: 28.5% | viability, T/C [24]: 36.3% | viability, T/C (second compound 10 µM, first compound 0.01 µM): 74.3% | viability, T/C [25]: 79.8% | viability, T/C [26]: 58.8% | viability, T/C [27]: 36.1% | viability, T/C [28]: 50.6% | viability, T/C [29]: 47.4%

Cn1ncnc1[C@H]1c2n[nH]c(=O)c3cc(F)cc(c23)N[C@@H]1c1ccc(F)cc1 + C=CC(=O)N1CCN(c2nc(OCC3CCCN3C)nc3c2CCN(c2cccc4cccc(C)c24)C3)CC1CC#N
IC50 (second compound 0.0316 µM): > 100 nM | IC50 (second compound 0.1 µM): > 100 nM | IC50 (second compound 0.316 µM): > 100 nM | IC50 (second compound 1 µM): > 100 nM | IC50 (second compound 3.16 µM): > 100 nM | viability, T/C (second compound 0.0316 µM, first compound 0.000316 µM): 84.3% | viability, T/C (second compound 0.0316 µM, first compound 0.001 µM): 88.4% | viability, T/C (second compound 0.0316 µM, first compound 0.00316 µM): 75.1% | viability, T/C (second compound 0.0316 µM, first compound 0.01 µM): 89.1% | viability, T/C (second compound 0.0316 µM, first compound 0.0316 µM): 68.9% | viability, T/C (second compound 0.0316 µM, first compound 0.1 µM): 65.5% | viability, T/C (second compound 0.1 µM, first compound 0.000316 µM): 62.2% | viability, T/C (second compound 0.1 µM, first compound 0.001 µM): 74.2% | viability, T/C (second compound 0.1 µM, first compound 0.00316 µM): 76.6% | viability, T/C [1]: 70.2% | viability, T/C [2]: 85.9% | viability, T/C [3]: 91.7% | viability, T/C (second compound 0.316 µM, first compound 0.000316 µM): 66% | viability, T/C (second compound 0.316 µM, first compound 0.001 µM): 73.8% | viability, T/C (second compound 0.316 µM, first compound 0.00316 µM): 74.1% | viability, T/C [7]: 66.3% | viability, T/C [8]: 78.5% | viability, T/C [9]: 76.3% | viability, T/C (second compound 1 µM, first compound 0.000316 µM): 61.3% | viability, T/C (second compound 1 µM, first compound 0.001 µM): 75.8% | viability, T/C (second compound 1 µM, first compound 0.00316 µM): 59.6% | viability, T/C [13]: 72.3% | viability, T/C [14]: 84.2% | viability, T/C [15]: 72.3% | viability, T/C (second compound 3.16 µM, first compound 0.000316 µM): 71.7% | viability, T/C (second compound 3.16 µM, first compound 0.001 µM): 67.4% | viability, T/C (second compound 3.16 µM, first compound 0.00316 µM): 62.3% | viability, T/C [19]: 62.3% | viability, T/C [20]: 59.2% | viability, T/C [21]: 58.9%

CC1(C)CCC(CN2CCN(c3ccc(C(=O)NS(=O)(=O)c4ccc(NCC5CCOCC5)c([N+](=O)[O-])c4)c(Oc4cnc5[nH]ccc5c4)c3)CC2)=C(c2ccc(Cl)cc2)C1 + CC1OCC2(CCN(c3cnc(Sc4ccnc(N)c4Cl)c(N)n3)CC2)C1N
IC50 (second compound 0.1 µM): > 10000 nM | IC50 (second compound 0.316 µM): > 10000 nM | IC50 (second compound 1 µM): 4320 nM | IC50 (second compound 3.16 µM): 2980 nM | IC50 (second compound 10 µM): 3650 nM | viability, T/C [2]: 81.4% | viability, T/C [3]: 93.4% | viability, T/C [4]: 91.2% | viability, T/C [5]: 82.3% | viability, T/C [6]: 72.6% | viability, T/C (second compound 0.1 µM, first compound 10 µM): 78.2% | viability, T/C [8]: 72.6% | viability, T/C [9]: 71.3% | viability, T/C [10]: 89.1% | viability, T/C [11]: 69.5% | viability, T/C [12]: 67.8% | viability, T/C (second compound 0.316 µM, first compound 10 µM): 57.4% | viability, T/C [14]: 65.7% | viability, T/C [15]: 74.5% | viability, T/C [16]: 42.8% | viability, T/C [17]: 58.7% | viability, T/C [18]: 59.9% | viability, T/C (second compound 1 µM, first compound 10 µM): 23.5% | viability, T/C [20]: 48.8% | viability, T/C [21]: 58.4% | viability, T/C [22]: 61.7% | viability, T/C [23]: 62.8% | viability, T/C [24]: 60.2% | viability, T/C (second compound 3.16 µM, first compound 10 µM): 29.9% | viability, T/C [25]: 89.7% | viability, T/C [26]: 66.9% | viability, T/C [27]: 74.8% | viability, T/C [28]: 61.6% | viability, T/C [29]: 60.6% | viability, T/C (second compound 10 µM, first compound 10 µM): 23.5%
